Biological target: T1, PFK2-N (Toxoplasma gondii, UniProt A0A125YKV6)
T1 construct: gene PFKII; N-terminal phosphofructokinase domain, residues 1-595; recombinant, E. coli Transetta (DE3), plasmid pESUMO-PFK2N (His-SUMO vector), Ni2+ column
T1 sequence (A0A125YKV6 1-595): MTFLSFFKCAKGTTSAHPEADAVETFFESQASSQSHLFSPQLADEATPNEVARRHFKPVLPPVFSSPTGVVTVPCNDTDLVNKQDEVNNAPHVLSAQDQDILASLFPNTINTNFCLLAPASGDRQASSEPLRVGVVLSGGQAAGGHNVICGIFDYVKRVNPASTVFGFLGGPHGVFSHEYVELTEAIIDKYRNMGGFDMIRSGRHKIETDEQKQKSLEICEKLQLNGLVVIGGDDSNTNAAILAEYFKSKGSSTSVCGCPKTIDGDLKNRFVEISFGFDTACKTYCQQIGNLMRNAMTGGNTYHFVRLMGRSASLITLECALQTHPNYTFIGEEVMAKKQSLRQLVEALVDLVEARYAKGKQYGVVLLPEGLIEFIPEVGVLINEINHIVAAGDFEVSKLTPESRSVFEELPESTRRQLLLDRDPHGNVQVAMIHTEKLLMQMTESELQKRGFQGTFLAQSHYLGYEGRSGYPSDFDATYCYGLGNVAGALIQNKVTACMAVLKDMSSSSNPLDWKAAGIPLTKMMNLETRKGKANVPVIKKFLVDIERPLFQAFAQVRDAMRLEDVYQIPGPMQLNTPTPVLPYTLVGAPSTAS
Assay: NADH-coupled OD340 assay (PFP activity kit)
Type: biochemical
Settings: co-substrate F6P 4 mM

With `O=P(O)(O)OP(=O)(O)O` [PPi] the “NADH-coupled OD340 assay (PFP activity kit)” value was “individually purified and assayed for the PPi dependent PFK activity”.

Reference: publication PMC8836295, “Essential role of pyrophosphate homeostasis mediated by the pyrophosphate-dependent phosphofructokinase in Toxoplasma gondii” (PLoS Pathogens, 2022)
